In ChEMBL document CHEMBL1139353, “Discovery of a new class of potential multifunctional atypical antipsychotic agents targeting dopamine D3 and serotonin 5-HT1A and 5-HT2A receptors: design, synthesis, and effects on behavior” (J Med Chem, 2009):
Calls of active or inactive are those of the source. The rule behind the calls is not given here.

Columns and labels:
Mus musculus [1] = organism: Mus musculus; settings: in vivo, 0.5 h
Description: Sedative activity in NMRI mouse assessed as reduction in spontaneous locomotor activity administered 30 mins prior to testing

Mus musculus [2] = organism: Mus musculus; settings: in vivo, sc, 1 h
Description: Toxicity in sc dosed NMRI mouse assessed as cataleptogenic potential administered 30 mins prior to testing measured every 15 mins for 60 mins by horizontal bar test

Mus musculus [3] = organism: Mus musculus; test: animal or person; settings: NMRI
Description: Antipsychotic activity in NMRI mouse assessed as reduction in phencyclidine-induced locomotor activity administered 30 mins prior to testing measured for 60 mins

Mus musculus [4] = organism: Mus musculus; test: animal or person; settings: NMRI; remark: listed apart in the source
Description: Antipsychotic activity in NMRI mouse assessed as reduction in methamphetamine-induced locomotor activity administered 30 mins prior to testing measured for 60 mins

[5] = target: Voltage-gated inwardly rectifying potassium channel KCNH2 (Homo sapiens, UniProt Q12809)
Voltage-gated inwardly rectifying potassium channel KCNH2, sequence (Q12809 whole entry): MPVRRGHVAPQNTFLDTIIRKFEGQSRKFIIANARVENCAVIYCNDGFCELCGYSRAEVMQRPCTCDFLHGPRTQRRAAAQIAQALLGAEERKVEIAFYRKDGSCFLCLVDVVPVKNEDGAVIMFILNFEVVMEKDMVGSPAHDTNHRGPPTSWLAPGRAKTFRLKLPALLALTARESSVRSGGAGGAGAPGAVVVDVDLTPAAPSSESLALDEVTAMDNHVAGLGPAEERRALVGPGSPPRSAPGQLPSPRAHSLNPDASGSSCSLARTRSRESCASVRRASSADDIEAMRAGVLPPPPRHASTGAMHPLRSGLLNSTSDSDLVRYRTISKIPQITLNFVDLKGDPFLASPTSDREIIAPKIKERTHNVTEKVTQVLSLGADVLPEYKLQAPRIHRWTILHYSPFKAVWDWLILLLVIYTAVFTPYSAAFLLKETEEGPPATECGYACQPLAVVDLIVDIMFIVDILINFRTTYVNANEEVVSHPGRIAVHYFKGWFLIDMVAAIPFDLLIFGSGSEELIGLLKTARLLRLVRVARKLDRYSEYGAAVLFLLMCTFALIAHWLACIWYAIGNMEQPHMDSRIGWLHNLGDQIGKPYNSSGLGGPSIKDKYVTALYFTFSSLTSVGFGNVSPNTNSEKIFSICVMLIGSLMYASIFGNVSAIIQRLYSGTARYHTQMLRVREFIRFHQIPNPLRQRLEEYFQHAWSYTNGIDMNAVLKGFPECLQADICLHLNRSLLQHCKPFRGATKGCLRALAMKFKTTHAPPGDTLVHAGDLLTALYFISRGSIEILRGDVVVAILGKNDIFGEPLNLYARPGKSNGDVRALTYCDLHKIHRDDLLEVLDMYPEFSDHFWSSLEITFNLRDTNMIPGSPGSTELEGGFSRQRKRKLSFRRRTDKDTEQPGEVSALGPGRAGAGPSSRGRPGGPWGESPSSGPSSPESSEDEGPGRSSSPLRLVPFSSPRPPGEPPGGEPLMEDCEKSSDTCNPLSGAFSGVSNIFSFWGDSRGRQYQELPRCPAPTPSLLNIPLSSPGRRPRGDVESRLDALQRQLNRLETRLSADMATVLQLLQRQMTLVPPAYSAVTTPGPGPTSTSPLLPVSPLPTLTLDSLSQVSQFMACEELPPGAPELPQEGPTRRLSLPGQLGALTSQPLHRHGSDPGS
Description: Binding affinity to human ERG expressed in HEK293 cells by whole cell patch clamp method

[6] = target: T1, 5-hydroxytryptamine receptor 1A (Rattus norvegicus, UniProt P19327); test: biochemical
T1 sequence (P19327 whole entry): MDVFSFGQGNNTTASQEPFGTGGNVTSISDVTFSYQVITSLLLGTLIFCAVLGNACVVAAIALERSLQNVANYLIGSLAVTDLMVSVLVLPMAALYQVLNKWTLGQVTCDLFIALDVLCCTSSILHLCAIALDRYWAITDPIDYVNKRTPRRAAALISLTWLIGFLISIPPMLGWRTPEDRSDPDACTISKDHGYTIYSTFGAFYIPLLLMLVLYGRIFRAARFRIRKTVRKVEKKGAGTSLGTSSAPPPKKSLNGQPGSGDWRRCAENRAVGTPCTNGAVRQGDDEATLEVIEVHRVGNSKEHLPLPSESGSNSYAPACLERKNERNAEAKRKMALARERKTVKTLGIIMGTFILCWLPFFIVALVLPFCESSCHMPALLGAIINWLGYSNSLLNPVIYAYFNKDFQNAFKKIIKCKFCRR
Description: Displacement of [3H]8OH-DPAT from 5HT1A receptor in CRL:CD(SD)BR-COBS rat hippocampus by scintillation spectrometry

D(1A) dopamine receptor = D(1A) dopamine receptor (Rattus norvegicus, UniProt P18901)
D(1A) dopamine receptor, sequence (P18901 whole entry): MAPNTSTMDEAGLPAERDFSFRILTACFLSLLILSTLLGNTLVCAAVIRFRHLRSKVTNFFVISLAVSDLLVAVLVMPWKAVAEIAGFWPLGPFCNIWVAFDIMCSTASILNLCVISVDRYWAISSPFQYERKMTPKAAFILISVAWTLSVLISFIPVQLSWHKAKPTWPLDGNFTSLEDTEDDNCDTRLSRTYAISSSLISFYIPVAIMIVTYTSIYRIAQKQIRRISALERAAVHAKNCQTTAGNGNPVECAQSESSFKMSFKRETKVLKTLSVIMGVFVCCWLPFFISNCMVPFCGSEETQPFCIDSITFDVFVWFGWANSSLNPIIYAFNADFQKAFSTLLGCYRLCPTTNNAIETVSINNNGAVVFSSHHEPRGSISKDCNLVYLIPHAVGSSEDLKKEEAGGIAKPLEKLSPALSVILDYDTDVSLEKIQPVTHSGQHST
Description: Displacement of [3H]SCH23390 from dopamine D1 receptor in CRL:CD(SD)BR-COBS rat striatum by scintillation spectrometry

D(3) dopamine receptor = D(3) dopamine receptor (Homo sapiens, UniProt P35462); test: biochemical
D(3) dopamine receptor, sequence (P35462 whole entry): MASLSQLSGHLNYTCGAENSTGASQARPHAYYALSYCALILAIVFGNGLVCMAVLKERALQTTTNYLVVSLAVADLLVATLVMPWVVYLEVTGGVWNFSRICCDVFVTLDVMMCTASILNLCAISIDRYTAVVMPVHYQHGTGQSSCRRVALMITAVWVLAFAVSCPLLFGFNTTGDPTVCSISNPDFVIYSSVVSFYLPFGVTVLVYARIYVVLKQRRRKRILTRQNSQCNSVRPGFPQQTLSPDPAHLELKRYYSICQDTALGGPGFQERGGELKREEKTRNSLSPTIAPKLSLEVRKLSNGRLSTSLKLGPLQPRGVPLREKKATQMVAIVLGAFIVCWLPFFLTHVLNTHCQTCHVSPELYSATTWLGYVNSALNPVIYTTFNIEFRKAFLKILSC
Description: Displacement of [3H]7OH-DPAT from dopamine D3 receptor expressed in Sf9 cells by scintillation spectrometry

[7] = target: 5-hydroxytryptamine receptor 2A (Rattus norvegicus, UniProt P14842)
5-hydroxytryptamine receptor 2A, sequence (P14842 whole entry): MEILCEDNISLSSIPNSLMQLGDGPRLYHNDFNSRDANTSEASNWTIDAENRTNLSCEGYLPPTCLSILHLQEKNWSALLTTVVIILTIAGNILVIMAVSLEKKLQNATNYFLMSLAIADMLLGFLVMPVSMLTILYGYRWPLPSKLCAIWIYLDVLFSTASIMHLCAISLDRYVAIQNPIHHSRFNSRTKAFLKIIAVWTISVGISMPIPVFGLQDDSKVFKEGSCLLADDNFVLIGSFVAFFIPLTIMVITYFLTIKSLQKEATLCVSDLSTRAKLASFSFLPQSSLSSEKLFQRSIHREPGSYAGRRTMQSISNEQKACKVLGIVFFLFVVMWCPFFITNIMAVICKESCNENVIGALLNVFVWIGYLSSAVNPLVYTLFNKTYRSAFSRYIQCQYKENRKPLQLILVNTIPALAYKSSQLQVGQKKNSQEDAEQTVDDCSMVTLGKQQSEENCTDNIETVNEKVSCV
Description: Displacement of [3H]ketanserin from 5HT2A receptor in CRL:CD(SD)BR-COBS rat cortex by scintillation spectrometry

[8] = target: D(1A) dopamine receptor (Rattus norvegicus) (UniProt P18901); test: Displacement of [3H]SCH23390 from dopamine D1 receptor in CRL:CD(SD)BR-COBS rat striatum at 100 uM by scintillation spectrometry
D(1A) dopamine receptor (Rattus norvegicus), sequence (P18901 whole entry): as the sequence (P18901 whole entry) above

Row | Ki (D(1A) dopamine receptor) [nM] | Ki (D(3) dopamine receptor) [nM] | Ki [7] [nM] | Activity [8] | Structure (SMILES) | ED50 (Mus musculus [1]) [mg/kg] | ED50 (Mus musculus [2]) [mg/kg] | ED50 (Mus musculus [3]) [mg/kg] | ED50 (Mus musculus [4]) [mg/kg] | Ki [5] [nM] | Ki [6] [nM]
1 | – | – | – | – | CN1CCN(C2=Nc3cc(Cl)ccc3Nc3ccccc32)CC1 [CLOZAPINE] | 2.4 | > 30 | 1.1 | 2.5 | – | –
2 | – | – | – | – | O=C(CCCN1CCC(O)(c2ccc(Cl)cc2)CC1)c1ccc(F)cc1 [HALOPERIDOL] | 0.08 | 0.19 | 0.09 | – | – | –
3 | – | – | – | – | O=C(NCCCCN1CCN(c2ccc(Cl)cc2Cl)CC1)c1cc2ccccc2[nH]1 | – | – | > 30 | – | – | –
4 | > 10000 | 3.7 | 389 | – | N#Cc1cccc(N2CCN(CCCCN3CCn4c(cc5ccccc54)C3=O)CC2)c1 | – | – | – | – | – | –
5 | – | 32.9 | 123 | – | Clc1cccc(N2CCN(CCCCOc3cc4ccccc4cn3)CC2)c1Cl | – | – | – | – | 160 | 24.2
6 | – | 0.38 | – | – | O=C(NCCCCN1CCN(c2ccc(Cl)cc2Cl)CC1)c1cc2cc(Cl)ccc2[nH]1 | – | – | > 30 | – | – | –
7 | – | – | – | – | Cc1cc2c(s1)Nc1ccccc1N=C2N1CCN(C)CC1 [OLANZAPINE] | – | – | – | – | 36000 | –
8 | > 10000 | 33.5 | 164 | – | COc1cccc2cc3n(c12)CCN(CCCCNC(=O)C1=Cc2ccccc2CN1)C3 | – | – | – | – | 1840 | 28
9 | – | 8.2 | 127 | inactive | Clc1cccc(N2CCN(CCCCOc3ccc4cccnc4c3)CC2)c1Cl | – | – | – | – | – | 4
10 | 4320 | 3.2 | 300 | – | O=C1c2cc3ccccc3n2CCN1CCCCN1CCN(c2ccc(Cl)cc2Cl)CC1 | – | – | – | – | – | –
11 | 5500 | 0.27 | 23.4 | – | O=C(NCCCCN1CCN(c2cccc(Cl)c2)CC1)c1cc2ccccc2cn1 | 14 | – | 6.7 | 4.2 | 300 | 14.7
12 | > 10000 | 0.54 | – | – | N#Cc1cccc(N2CCN(CCCCNC(=O)c3cc4ccccc4o3)CC2)c1 | – | – | – | – | 390 | –

Row | Structure (SMILES) | Ki (D(1A) dopamine receptor) [nM] | Ki (D(3) dopamine receptor) [nM] | Ki [7] [nM] | Activity [8] | ED50 (Mus musculus [1]) [mg/kg] | ED50 (Mus musculus [2]) [mg/kg] | ED50 (Mus musculus [3]) [mg/kg] | ED50 (Mus musculus [4]) [mg/kg] | Ki [5] [nM] | Ki [6] [nM]
13 | O=C1c2cc3ccccc3n2CCN1CCCCN1CCN(c2cccc(Cl)c2Cl)CC1 | 4370 | 0.105 | 83 | – | > 30 | – | > 3 | 3.7 | 200 | 9.3
14 | COc1cccc2cc3n(c12)CCN(CCCCN1CCn2c(cc4ccccc42)C1=O)C3 | > 10000 | 8.6 | 200 | – | – | – | – | – | 260 | 33
15 | Clc1cccc(N2CCN(CCCCCOc3cc4ccccc4cn3)CC2)c1Cl | – | 0.14 | 57 | – | > 30 | – | > 10 | > 10 | 210 | 18
16 | O=C(NCCCCN1CCN(c2cccc(Cl)c2Cl)CC1)c1cc2ccccc2cn1 | 4600 | 0.099 | 41 | – | – | – | – | – | 200 | 5
17 | COc1cccc2c1C1CCN(CCCCNC(=O)C3=Cc4ccccc4CN3)CC1=N2 (stereo not given) | > 10000 | 6 | 149 | – | – | – | – | – | – | 118
